Laboratory results reported in patent US20120029187A1, “HALOALKYLSULFONANILIDE DERIVATIVE” (Nissan Chemical Industries, Ltd., priority 2009, published 2012).

What was measured:
Format in all cases: in vivo
barnyardgrass [1] = experiment: Test Example 1: herbicidal effects in preemergence treatment under submerged conditions; details: dose 2.52 g/a
In short: (§1)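 Scoring 0 (<5% mortality) to 5 (≥90%) was done three weeks after preemergence application to the water surface of submerged (4 cm) alluvial soil, doses given as g per are. Weeds were seeded and 2.5-leaf rice transplanted on the treatment day; greenhouse at 25–30 °C.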

ducksalad [2] = experiment: as above; details: dose 2.52 g/a
In short: as §1

bulrush [3] = experiment: as above; details: dose 2.52 g/a
In short: as §1

barnyardgrass [4] = experiment: Test Example 2: herbicidal effects during the vegetation period under submerged conditions; details: treatment during the vegetation period under submerged conditions; dose 2.52 g/a
In short: (§2)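 Barnyardgrass, bulrush and ducksalad were co-sown in alluvial soil flooded to 4 cm and grown in a greenhouse at 25 to 30° C. At the 1- or 2-leaf stage, water-diluted emulsifiable concentrates went onto the water surface at set doses (g/a). Herbicidal effect was scored three weeks later on a graded scale.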

ducksalad [5] = experiment: as above; details: treatment during the vegetation period under submerged conditions; dose 2.52 g/a
In short: as §2

bulrush [6] = experiment: as above; details: treatment during the vegetation period under submerged conditions; dose 2.52 g/a
In short: as §2

common lambsquater [7] = experiment: Test Example 4: herbicidal effect in foliage treatment; details: dose 3.2 g/a, three weeks after application
In short: (§3)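 Visual herbicidal scores on a graded scale were recorded three weeks after foliar application. Compounds went on as diluted emulsifiable concentrates at predetermined g/a to plants grown 14 days in a 25 to 30° C greenhouse.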

barnyardgrass [8] = experiment: as above; details: dose 3.2 g/a, three weeks after application
In short: as §3

giant foxtail [9] = experiment: as above; details: dose 3.2 g/a, three weeks after application
In short: as §3

velvetleaf [10] = experiment: as above; details: dose 3.2 g/a, three weeks after application
In short: as §3

common ragweed [11] = experiment: as above; details: dose 3.2 g/a, three weeks after application
In short: as §3

water foxtail [12] = experiment: as above; details: dose 3.2 g/a, three weeks after application
In short: as §3

common chickweed [13] = experiment: as above; details: dose 3.2 g/a, three weeks after application
In short: as §3

posumbu knotweed [14] = experiment: as above; details: dose 3.2 g/a, three weeks after application
In short: as §3

Italian ryegrass [15] = experiment: as above; details: dose 3.2 g/a, three weeks after application
In short: as §3

redroot pigweed [16] = experiment: as above; details: dose 3.2 g/a, three weeks after application
In short: as §3

wild oat [17] = experiment: as above; details: dose 3.2 g/a, three weeks after application
In short: as §3

large crabgrass [18] = experiment: as above; details: dose 3.2 g/a, three weeks after application
In short: as §3

beadstraw [19] = experiment: as above; details: dose 3.2 g/a, three weeks after application
In short: as §3

common lambsquater [20] = experiment: Test Example 3: herbicidal effects in soil treatment; details: dose 3.2 g/a
In short: (§4)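 Seeds were sown in sterilized diluvial soil and covered with about 1.5 cm of soil. Compounds, formulated as emulsifiable concentrates and diluted with water, were sprayed evenly over the soil surface at set doses in g/a. Herbicidal effect was scored on a rating scale three weeks later.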

barnyardgrass [21] = experiment: as above; details: dose 3.2 g/a
In short: as §4

giant foxtail [22] = experiment: as above; details: dose 3.2 g/a
In short: as §4

velvetleaf [23] = experiment: as above; details: dose 3.2 g/a
In short: as §4

common ragweed [24] = experiment: as above; details: dose 3.2 g/a
In short: as §4

water foxtail [25] = experiment: as above; details: dose 3.2 g/a
In short: as §4

common chickweed [26] = experiment: as above; details: dose 3.2 g/a
In short: as §4

posumbu knotweed [27] = experiment: as above; details: dose 3.2 g/a
In short: as §4

Italian ryegrass [28] = experiment: as above; details: dose 3.2 g/a
In short: as §4

redroot pigweed [29] = experiment: as above; details: dose 3.2 g/a
In short: as §4

wild oat [30] = experiment: as above; details: dose 3.2 g/a
In short: as §4

large crabgrass [31] = experiment: as above; details: dose 3.2 g/a
In short: as §4

beadstraw [32] = experiment: as above; details: dose 3.2 g/a
In short: as §4

transplanted rice = experiment: Test Example 1: preemergence treatment under submerged conditions, effect on crop; details: dose 2.52 g/a
In short: as §1

SMILES	A: barnyardgrass, herbicidal effect (evaluation scale 0-5) (barnyardgrass [1])	C: ducksalad, herbicidal effect (evaluation scale 0-5) (ducksalad [2])	B: bulrush, herbicidal effect (evaluation scale 0-5) (bulrush [3])	A: barnyardgrass, herbicidal effect (evaluation scale 0-5) (barnyardgrass [4])	C: ducksalad, herbicidal effect (evaluation scale 0-5) (ducksalad [5])	B: bulrush, herbicidal effect (evaluation scale 0-5) (bulrush [6])	L: common lambsquater, herbicidal effect (common lambsquater [7])	A: barnyardgrass, herbicidal effect (barnyardgrass [8])	E: giant foxtail, herbicidal effect (giant foxtail [9])	I: velvetleaf, herbicidal effect (velvetleaf [10])	J: common ragweed, herbicidal effect (common ragweed [11])	G: water foxtail, herbicidal effect (water foxtail [12])	N: common chickweed, herbicidal effect (common chickweed [13])	M: posumbu knotweed, herbicidal effect (posumbu knotweed [14])	H: Italian ryegrass, herbicidal effect (Italian ryegrass [15])	K: redroot pigweed, herbicidal effect (redroot pigweed [16])	F: wild oat, herbicidal effect (wild oat [17])	D: large crabgrass, herbicidal effect (large crabgrass [18])	O: beadstraw, herbicidal effect (beadstraw [19])	L: common lambsquater, herbicidal effect (evaluation scale 0-5) (common lambsquater [20])	further results
CN(c1ccccc1CN1COC(C)(C)CC1=O)S(=O)(=O)C(F)(F)F [II-18]	2 (mortality of at least 20% and less than 40%)	0 (mortality of less than 5% (almost ineffective))	5 (mortality of 90% or above (nearly complete death))	5 (mortality of 90% or above (nearly complete death))	2 (mortality of at least 20% and less than 40%)	5 (mortality of 90% or above (nearly complete death))	0 (mortality of less than 5% (almost ineffective))	4 (mortality of at least 70% and less than 90%)	0 (mortality of less than 5% (almost ineffective))	0 (mortality of less than 5% (almost ineffective))	3 (mortality of at least 40% and less than 70%)	0 (mortality of less than 5% (almost ineffective))	4 (mortality of at least 70% and less than 90%)	3 (mortality of at least 40% and less than 70%)	0 (mortality of less than 5% (almost ineffective))	0 (mortality of less than 5% (almost ineffective))	0 (mortality of less than 5% (almost ineffective))	0 (mortality of less than 5% (almost ineffective))	5 (mortality of 90% or above (nearly complete death))	0 (mortality of less than 5% (almost ineffective))	A: barnyardgrass, herbicidal effect (evaluation scale 0-5) (barnyardgrass [21]): 4 (mortality of at least 70% and less than 90%); E: giant foxtail, herbicidal effect (evaluation scale 0-5) (giant foxtail [22]): 0 (mortality of less than 5% (almost ineffective)); I: velvetleaf, herbicidal effect (evaluation scale 0-5) (velvetleaf [23]): 0 (mortality of less than 5% (almost ineffective)); J: common ragweed, herbicidal effect (evaluation scale 0-5) (common ragweed [24]): 4 (mortality of at least 70% and less than 90%); G: water foxtail, herbicidal effect (evaluation scale 0-5) (water foxtail [25]): 0 (mortality of less than 5% (almost ineffective)); N: common chickweed, herbicidal effect (evaluation scale 0-5) (common chickweed [26]): 4 (mortality of at least 70% and less than 90%); M: posumbu knotweed, herbicidal effect (evaluation scale 0-5) (posumbu knotweed [27]): 0 (mortality of less than 5% (almost ineffective)); H: Italian ryegrass, herbicidal effect (evaluation scale 0-5) (Italian ryegrass [28]): 0 (mortality of less than 5% (almost ineffective)); K: redroot pigweed, herbicidal effect (evaluation scale 0-5) (redroot pigweed [29]): 0 (mortality of less than 5% (almost ineffective)); F: wild oat, herbicidal effect (evaluation scale 0-5) (wild oat [30]): 0 (mortality of less than 5% (almost ineffective)); D: large crabgrass, herbicidal effect (evaluation scale 0-5) (large crabgrass [31]): 0 (mortality of less than 5% (almost ineffective)); O: beadstraw, herbicidal effect (evaluation scale 0-5) (beadstraw [32]): 4 (mortality of at least 70% and less than 90%); a: transplanted rice, effect on crop (evaluation scale 0-5) (transplanted rice): 0 (mortality of less than 5% (almost ineffective))
CC1(C)OCN(Cc2ccccc2NS(=O)(=O)C(F)(F)F)C(=O)C1F (stereo not drawn) [II-32]	5 (mortality of 90% or above (nearly complete death))	5 (mortality of 90% or above (nearly complete death))	5 (mortality of 90% or above (nearly complete death))	5 (mortality of 90% or above (nearly complete death))	5 (mortality of 90% or above (nearly complete death))	5 (mortality of 90% or above (nearly complete death))	2 (mortality of at least 20% and less than 40%)	5 (mortality of 90% or above (nearly complete death))	4 (mortality of at least 70% and less than 90%)	4 (mortality of at least 70% and less than 90%)	3 (mortality of at least 40% and less than 70%)	5 (mortality of 90% or above (nearly complete death))	3 (mortality of at least 40% and less than 70%)	2 (mortality of at least 20% and less than 40%)	4 (mortality of at least 70% and less than 90%)	1 (mortality of at least 5% and less than 20%)	2 (mortality of at least 20% and less than 40%)	4 (mortality of at least 70% and less than 90%)	4 (mortality of at least 70% and less than 90%)	0 (mortality of less than 5% (almost ineffective))	A: barnyardgrass, herbicidal effect (evaluation scale 0-5) (barnyardgrass [21]): 5 (mortality of 90% or above (nearly complete death)); E: giant foxtail, herbicidal effect (evaluation scale 0-5) (giant foxtail [22]): 4 (mortality of at least 70% and less than 90%); I: velvetleaf, herbicidal effect (evaluation scale 0-5) (velvetleaf [23]): 3 (mortality of at least 40% and less than 70%); J: common ragweed, herbicidal effect (evaluation scale 0-5) (common ragweed [24]): 5 (mortality of 90% or above (nearly complete death)); G: water foxtail, herbicidal effect (evaluation scale 0-5) (water foxtail [25]): 5 (mortality of 90% or above (nearly complete death)); N: common chickweed, herbicidal effect (evaluation scale 0-5) (common chickweed [26]): 3 (mortality of at least 40% and less than 70%); M: posumbu knotweed, herbicidal effect (evaluation scale 0-5) (posumbu knotweed [27]): 4 (mortality of at least 70% and less than 90%); H: Italian ryegrass, herbicidal effect (evaluation scale 0-5) (Italian ryegrass [28]): 5 (mortality of 90% or above (nearly complete death)); K: redroot pigweed, herbicidal effect (evaluation scale 0-5) (redroot pigweed [29]): 3 (mortality of at least 40% and less than 70%); F: wild oat, herbicidal effect (evaluation scale 0-5) (wild oat [30]): 0 (mortality of less than 5% (almost ineffective)); D: large crabgrass, herbicidal effect (evaluation scale 0-5) (large crabgrass [31]): 5 (mortality of 90% or above (nearly complete death)); O: beadstraw, herbicidal effect (evaluation scale 0-5) (beadstraw [32]): 3 (mortality of at least 40% and less than 70%); a: transplanted rice, effect on crop (evaluation scale 0-5) (transplanted rice): 0 (mortality of less than 5% (almost ineffective))
